Test results as given in patent US8487001B2, “Medium-chain length fatty acids, glycerides and analogues as neutrophil survival and activation factors” (ProMetic BioSciences Inc., priority 2001, dated 2013).
Entries after “also recorded” stand apart in the source; their conditions may differ.

What was measured:
spleen cells = assay: In vivo chemoprotection: spleen cell count
Procedure: (§1) To examine the immunoprotective effect of MCT or other compounds, mice were pre-treated orally at day-3, -2 and -1 or treated intravenously at day 0 with the test compound. Mice were sacrificed at day +5 by cardiac puncture and cervical dislocation. Then, cell suspensions were prepared from thymus, spleen and bone marrow as follow.
(§2) Tissues were crushed in PBS buffer and contaminating erythrocytes were lysed in ACK buffer (155 mM NH4Cl, 12 mM NaHCO3, 0.1 mM EDTA, pH 7.3) for 5 minutes. Cells were then collected by centrifugation and washed three times in PBS and resuspended in tissue culture medium. Cells were counted on a hemacytometer.
(§3) Chemoprotection studies were performed as described in example 16 except that mice were (post)-treated with MCT, sodium caprylate, sodium caprate or capric acid per o.s. on day 1, 2, 3 and 4.

bone marrow cells = assay: In vivo chemoprotection: bone marrow cell count; conditions: for effect on bone marrow cell count, post-treatment: post-treatment per o.s. on day 1, 2, 3 and 4
Procedure: as §1, §2, §3

spleen cell subsets = assay: Spleen immunophenotyping (flow cytometry of cell surface markers); format: in vivo, C57BL/6 mice; conditions: CY (200 mg/kg) immunosuppressed mice
Procedure: (§4) Female, 6- to 8-week old, C57BL/6 mice were pre-treated on day -3, -2 and -1 per o.s. or intravenously at day 0 with different concentrations of MCT. Immunophenotyping was also performed on immunosuppressed animals. […] Mice were sacrificed on day 5 by cardiac puncture. Blood and spleens were collected and cell suspensions prepared and erythrocytes lysed in ACK buffer (155 mM NH4Cl, 12 mM NaHCO3, 0.1 mM EDTA, pH 7.3) for 5 minutes. The cells were washed three times in PBS, pH 7.4 and resuspended in tissue culture medium. The cells were then incubated for 45 minutes on ice with fluorescein isothiocyanate (FITC) or phycoerythrin (PE) conjugated cell surface marker according to the manufacturer's (Gibco/BRL, Cedarlane, Boehringer Mannheim) recommendation. The cells were then washed in PBS, fixed with 1% paraformaldehyde and analyzed with a Coulter XL flow cytometer. Analysis of the cell subsets was undertaken by determination of standard cell surface markers which were as follows: TCR (T-cell receptor), CD4 (T helper), CD8 (T cytotoxic/suppressor), CD11b (macrophage), NK (NK cells) and Ly5 (B-cells). Bone marrow cells were obtained as described in example 15. Cells were stained by a 45 minutes incubation of FITC or PE conjugated cell surface marker according to the manufacturer's recommendation. The cells were then washed in PBS, fixed with 1% paraformaldehyde and analyzed with a Coulter XL flow cytometer. Analysis of the cell subsets was undertaken by determination of standard cell surface markers which were as follows: CD34 (hematopoietic progenitor cells), CD41 (platelets, megakaryocytes), CD13 (myelomonocytic stem cells, myelocytes, promonocytes) and CD38 (lymphoid stem cells, pro-B, pre-B).

blood cell subsets = assay: Blood immunophenotyping (flow cytometry of cell surface markers); format: in vivo, C57BL/6 mice; conditions: CY (200 mg/kg) immunosuppressed mice; for Blood Immunophenotyping: LY5−TCR− cell subset (relative percentage): Table 14
Procedure: as §4

bone marrow cell subsets = assay: Bone marrow immunophenotyping (CD34, CD13, CD41, CD38); format: in vivo, C57BL/6 mice; conditions: for Bone marrow immunophenotyping: CY-treated mice, test substances compared to cyclophosphamide alone; for % Cells CD13+ (bone marrow) / % Cells CD34+ (bone marrow) / % Cells CD38+ (bone marrow) / % Cells CD41+ (bone marrow): Table 15, CY (200 mg/kg) immunosuppressed mice, CY + test substance (Cyclophosphamide line = CY alone)
Procedure: as §4
The effect of MCT, sodium caprylate, sodium caprate on bone marrow immunophenotyping was assessed by the protocol described in example 26.

[1] = CY-treated mice, protocol of example 16 (pre-treatment)
[2] = Table 5, CY-treated mice, CY + test compound (CY line = CY alone), protocol of example 16
[3] = Table 11, CY + capric acid 3.125 μMole post-treatment per o.s. day 1, 2, 3 and 4
[4] = Table 11, CY + capric acid 6.25 μMole post-treatment per o.s. day 1, 2, 3 and 4
[5] = Table 11, CY + capric acid 12.5 μMole post-treatment per o.s. day 1, 2, 3 and 4
[6] = Table 7, CY-treated mice, CY + test compound 6.25 μMole pre-treatment (CY line = CY alone)
[7] = Table 10, CY-treated mice, post-treatment per o.s. on day 1, 2, 3 and 4 with test substance 12.5 μM (CY line = CY alone)
[8] = Table 9, CY-immunosuppressed mice, CY + test compound 6.25 μMole (CY line = CY alone)
[9] = Table 6, CY-treated mice, CY + test compound (CY line = CY alone), protocol of example 16
[10] = Table 16, CY-treated mice, CY + test compound (CY line = CY alone), protocol of example 16
[11] = Table 8, CY-immunosuppressed mice, CY + test compound 6.25 μM (CY line = CY alone)
[12] = Table 17, CY-treated mice, CY + test compound (CY line = CY alone), protocol of example 16

## O=c1[nH]cc(F)c(=O)[nH]1 [5-FU, 5-fluorouracil, reference compound]
Spleen cells; mouse, in vivo, iv
  effect of cytotoxic drug on spleen cell count compared to the control: reduce significantly the spleen cell count compared to the control
Bone marrow cells; mouse, in vivo, iv
  effect of cytotoxic drug on bone marrow cell count compared to the control: depressed the bone marrow cell count compared to the control

## CCCCCCCCCC(=O)O [capric acid]
Spleen cell subsets
  Spleen Immunophenotyping: effect compared to cyclophosphamide alone (words): no significant effect compared to cyclophosphamide alone
Spleen cell subsets; listed as Capric acid
  Spleen Immunophenotyping: effect compared to cyclophosphamide alone (words): No significant effect
Spleen cells; CY-treated mice, post-treatment per o.s. on day 1, 2, 3 and 4
  effect on spleen cell count, post-treatment: significant increase in spleen cell count
Spleen cells; [1]
  effect on spleen cell count compared to cyclophosphamide treated mice: No significant effect
Spleen cells; [2]
  Spleen # Cells (×10^6): 27 ± 8.4 ×10^6
Spleen cells; [3]
  Spleen # Cells (×10^6): 31 ± 8.7 ×10^6
Spleen cells; [4]
  Spleen # Cells (×10^6): 25 ± 6.3 ×10^6
Spleen cells; [5]
  Spleen # Cells (×10^6): 36 ± 7.8 ×10^6
Blood cell subsets
  Blood Immunophenotyping: effect compared to cyclophosphamide alone (words): significantly increase the relative percentage of LY5-TCR- on blood
Blood cell subsets; compound 6.25 μM
  Blood Immunophenotyping: LY5−TCR− cell subset (relative percentage): 61.52 ± 5.16
Blood cell subsets; compound 12.5 μM
  Blood Immunophenotyping: LY5−TCR− cell subset (relative percentage): 70.79 ± 3.95
Bone marrow cells; CY-treated mice
  effect on bone marrow cell count, post-treatment: weak increase in bone marrow cell count
Bone marrow cells; [1]
  effect on bone marrow cell count compared to cyclophosphamide treated mice: significantly enhances the bone marrow cell counts
Bone marrow cells; [2]
  Bone Marrow # Cells (×10^6): 32 ± 2.71 ×10^6
Bone marrow cells; [3]
  Bone Marrow # Cells (×10^6): 37 ± 7.8 ×10^6
Bone marrow cells; [4]
  Bone Marrow # Cells (×10^6): 38 ± 4.6 ×10^6
Bone marrow cells; [5]
  Bone Marrow # Cells (×10^6): 38 ± 7.4 ×10^6

## CCCCCCCC(=O)O [caprylic acid]
Spleen cells; [1]
  effect on spleen cell count compared to cyclophosphamide treated mice: No significant effect
Spleen cells; [2]
  Spleen # Cells (×10^6): 28 ± 6.4 ×10^6
Bone marrow cells; [2]
  Bone Marrow # Cells (×10^6): 26 ± 3.58 ×10^6

## CCCCCCCCCC(=O)OCC [ethyl caprate]
Bone marrow cells; Table 18, CY-treated mice, CY + test compound (CY line = CY alone), protocol of example 16
  Bone Marrow # Cells (×10^6): 27.5 ± 4.4 ×10^6

## CCCCCCCCCCCC(=O)O [lauric acid]
Spleen cells; [1]
  effect on spleen cell count compared to cyclophosphamide treated mice: Significant increases in proliferation or protection of bone marrow and spleen cell counts
Spleen cells; [6]
  Spleen # Cells (×10^6): 32 ± 5 ×10^6
Bone marrow cells; [1]
  effect on bone marrow cell count compared to cyclophosphamide treated mice: Significant increases in proliferation or protection of bone marrow and spleen cell counts
Bone marrow cells; [6]
  Bone Marrow # Cells (×10^6): 42 ± 7.8 ×10^6

## CCCCCCCCC(=O)O [nonanoic acid]
Spleen cells; [1]
  effect on spleen cell count compared to cyclophosphamide treated mice: weak (not significant) activity on immune cell counts
Spleen cells; [6]
  Spleen # Cells (×10^6): 28 ± 4 ×10^6
Bone marrow cells; [1]
  effect on bone marrow cell count compared to cyclophosphamide treated mice: weak (not significant) activity on immune cell counts
Bone marrow cells; [6]
  Bone Marrow # Cells (×10^6): 36 ± 5.6 ×10^6

## CCCCCCCCCC(=O)[O-].[Na+] [sodium caprate]
Bone marrow cell subsets
  Bone marrow immunophenotyping: amplifies the number of CD13+ lineage
  % Cells CD13+ (bone marrow): 4.7 ± 1.7%
  % Cells CD34+ (bone marrow): 9.1 ± 3.1%
  % Cells CD38+ (bone marrow): 44.3 ± 22.8%
  % Cells CD41+ (bone marrow): 3.7 ± 0.7%
Spleen cells; [7]
  Spleen # Cells (×10^6): 28 ± 6.3 ×10^6
Bone marrow cells; CY-treated mice
  effect on bone marrow cell count, post-treatment: significant increase in bone marrow cell count
Bone marrow cells; [1]
  effect on bone marrow cell count compared to cyclophosphamide treated mice: significant increase in proliferation or protection of bone marrow cell count
Bone marrow cells; [7]
  Bone Marrow # Cells (×10^6): 29 ± 4.45 ×10^6

## CCCCCC(=O)[O-].[Na+] [sodium caproate]
Spleen cells; [8]
  Spleen # Cells (×10^6): 35 ± 10.6 ×10^6
Spleen cells; mouse, in vivo
  effect on spleen cell count compared to cyclophosphamide treated mice: weak (not significant) activity
Blood cell subsets
  Blood Immunophenotyping: effect compared to cyclophosphamide alone (words): significantly increase the relative percentage of LY5-TCR- on blood
Blood cell subsets; compound 6.25 μM
  Blood Immunophenotyping: LY5−TCR− cell subset (relative percentage): 52.43 ± 10.16
Bone marrow cells; [8]
  Bone Marrow # Cells (×10^6): 39 ± 17.9 ×10^6
Bone marrow cells; mouse, in vivo
  effect on bone marrow cell count compared to cyclophosphamide treated mice: weak (not significant) activity

## CCCCCCCC(=O)[O-].[Na+] [sodium caprylate]
Bone marrow cell subsets
  Bone marrow immunophenotyping: amplifies the number of CD13+ lineage
  % Cells CD13+ (bone marrow): 4.9 ± 1.2%
  % Cells CD34+ (bone marrow): 11.2 ± 1.3%
  % Cells CD38+ (bone marrow): 36 ± 9.7%
  % Cells CD41+ (bone marrow): 4.6 ± 1.3%
Spleen cells; [7]
  Spleen # Cells (×10^6): 36 ± 12.5 ×10^6
Bone marrow cells; CY-treated mice
  effect on bone marrow cell count, post-treatment: significant increase in bone marrow cell count
Bone marrow cells; [1]
  effect on bone marrow cell count compared to cyclophosphamide treated mice: significant increase in proliferation or protection of bone marrow cell count
Bone marrow cells; [7]
  Bone Marrow # Cells (×10^6): 26 ± 5.33 ×10^6

## CCCCCCCCCC(=O)OCC(COC(=O)CCCCCCCCC)OC(=O)CCCCCCCCC [tricaprin]
Spleen cells; [1]
  effect on spleen cell count compared to cyclophosphamide treated mice: No significant effect
Spleen cells; [9]
  Spleen # Cells (×10^6): 38 ± 6.8 ×10^6
Bone marrow cells; [1]
  effect on bone marrow cell count compared to cyclophosphamide treated mice: efficacious in the proliferation or protection of bone marrow cell counts
Bone marrow cells; [9]
  Bone Marrow # Cells (×10^6): 31 ± 3.8 ×10^6

## CCCCCC(=O)OCC(COC(=O)CCCCC)OC(=O)CCCCC [tricaproin]
Spleen cells; [1]
  effect on spleen cell count compared to cyclophosphamide treated mice: weak (not significant) activity
Spleen cells; [8]
  Spleen # Cells (×10^6): 37 ± 8.7 ×10^6
Bone marrow cells; [1]
  effect on bone marrow cell count compared to cyclophosphamide treated mice: weak (not significant) activity
Bone marrow cells; [8]
  Bone Marrow # Cells (×10^6): 29 ± 4.1 ×10^6

## CCCCCCCCCC(=O)NC(COC(=O)CCCCCCCCC)COC(=O)CCCCCCCCC [tridecanoyl serinol, 1,2,3-O,N,O-Tridecanoyl serinol]
Spleen cells; [1]
  effect on spleen cell count compared to cyclophosphamide treated mice: significantly enhances the spleen cell counts
Spleen cells; [10]
  Spleen # Cells (×10^6): 42 ± 8.4 ×10^6
Bone marrow cells; [1]
  effect on bone marrow cell count compared to cyclophosphamide treated mice: No significant effect
Bone marrow cells; [10]
  Bone Marrow # Cells (×10^6): 28 ± 4.6 ×10^6

## CCCCCCCCCCCC(=O)OCC(COC(=O)CCCCCCCCCCC)OC(=O)CCCCCCCCCCC [trilaurin]
Spleen cell subsets
  Spleen Immunophenotyping: effect compared to cyclophosphamide alone (words): enhance the relative percentage of CD11+; also recorded: induces a significant increase in the LY5-TCR- and NK+ cell subsets
Spleen cell subsets; Table 14, compound 6.25 μM
  Spleen Immunophenotyping: CD11+ cell subset (relative percentage): 43.94 ± 4.78
  Spleen Immunophenotyping: LY5−TCR− cell subset (relative percentage): 77.86 ± 2.94
  Spleen Immunophenotyping: NK+ cell subset (relative percentage): 17.46 ± 5.80
Spleen cells; [1]
  effect on spleen cell count compared to cyclophosphamide treated mice: weak (not significant) activity
Spleen cells; [11]
  Spleen # Cells (×10^6): 28 ± 19.5 ×10^6
Blood cell subsets
  Blood Immunophenotyping: effect compared to cyclophosphamide alone (words): no significant effect compared to cyclophosphamide alone
Blood cell subsets; listed as Trilaurin
  Blood Immunophenotyping: effect compared to cyclophosphamide alone (words): No significant effect
Bone marrow cells; [1]
  effect on bone marrow cell count compared to cyclophosphamide treated mice: weak (not significant) activity
Bone marrow cells; [11]
  Bone Marrow # Cells (×10^6): 31 ± 6.8 ×10^6

## CCCCCCCCCC(=O)OC1C(C)OC(OC)C(OC(=O)CCCCCCCCC)C1OC(=O)CCCCCCCCC [α-methyl tridecanoyl-L-fucopyranose, α-O-Methyl-2,3,4,—O,O,O-tridecanoyl-L-fucopyranose]
Bone marrow cells; [12]
  Bone Marrow # Cells (×10^6): 30.4 ± 9.3 ×10^6
Bone marrow cells; mouse, in vivo
  effect on bone marrow cell count compared to cyclophosphamide treated mice: lack of activity

## CCCCCCCCCC(=O)OC1C(C)OC(OC)C(OC(=O)CCCCCCCCC)C1OC(=O)CCCCCCCCC [β-methyl tridecanoyl-L-fucopyranose, β-O-Methyl-2,3,4,—O,O,O-tridecanoyl-L-fucopyranose]
Bone marrow cells; [12]
  Bone Marrow # Cells (×10^6): 34.6 ± 8.5 ×10^6
Bone marrow cells; mouse, in vivo
  effect on bone marrow cell count compared to cyclophosphamide treated mice: weak (not significant) activity on bone marrow cell counts
